Test results taken from BindingDB's records for doi:10.1016/j.bmc.2018.06.029 (East China University of Science & Technology, 2018).

The compounds below were run against Tyrosine-protein kinase SYK (Homo sapiens) (UniProt P43405) (assay: Inhibition of SYK (unknown origin) using FAM-labeled peptide as substrate preincubated for 10 mins followed by substrate addition measured after 25 mins).

Point of comparison: `CCCCCCCNc1nc(N2CCC(NC(=O)c3ccc(C(=O)O)cn3)C2)nc2c1COC2` (stereo unspecified), IC50 11.4 µM. Against it:
- COC(=O)c1ccc(C(=O)NC2CCN(c3nc4c(c(Nc5ccc(OC)c(OC)c5)n3)CCC4)C2)cc1 (stereo unspecified) — higher, > 50 µM
- CCCCCNc1nc(N2CCC(NC(=O)c3ccc(C(=O)O)cn3)C2)nc2c1COC2 (stereo unspecified) — higher, > 50 µM
- COc1ccc(Nc2nc(N3CCC(NC(=O)c4ccc(C(=O)O)cn4)C3)nc3c2COC3)cc1OC (stereo unspecified) — 2.1-fold higher, 23.7 µM
- COc1cc(Nc2nc(N3CCC(NC(=O)c4ccc(C(=O)O)cn4)C3)nc3c2COC3)cc(OC)c1 (stereo unspecified) — 1.8-fold higher, 20.9 µM
- Cc1ccc(Nc2nc(N3CCC(NC(=O)c4ccc(C(=O)O)cn4)C3)nc3c2COC3)cc1C (stereo unspecified) — within 1.5-fold, 15.6 µM
- COCCCNc1nc(N2CCC(NC(=O)c3ccc(C(=O)O)cn3)C2)nc2c1COC2 (stereo unspecified) — higher, > 50 µM
- O=C(O)c1ccc(C(=O)NC2CCN(c3nc4c(c(NC5CCCCC5)n3)COC4)C2)nc1 (stereo unspecified) — within 1.5-fold, 13.5 µM
- O=C(O)c1ccc(C(=O)NC2CCN(c3nc4c(c(Nc5ccc6c(c5)OCCO6)n3)COC4)C2)nc1 (stereo unspecified) — 1.8-fold higher, 20.3 µM
- COc1cc(Nc2nc(N3CCC(NC(=O)c4ccc(C(=O)O)cn4)C3)nc3c2COC3)cc(OC)c1OC (stereo unspecified) — within 1.5-fold, 14.2 µM
- COc1ccc(Nc2nc(N3CCC(NC(=O)c4ccc(C(=O)O)cc4)C3)nc3c2CCC3)cc1OC (stereo unspecified) — 2.2-fold higher, 25.3 µM
- CCCCCCNc1nc(N2CCC(NC(=O)c3ccc(C(=O)O)cn3)C2)nc2c1COC2 (stereo unspecified) — within 1.5-fold, 9.7 µM
- CCc1ccc(Nc2nc(N3CCC(NC(=O)c4ccc(C(=O)O)cn4)C3)nc3c2COC3)cc1 (stereo unspecified) — 1.7-fold higher, 19.2 µM
- COc1ccc(Nc2nc(N3CCC(NC(=O)c4ccc(C(=O)O)cn4)C3)nc3c2COC3)cc1 (stereo unspecified) — 2.8-fold higher, 32.1 µM
- CCOCCCNc1nc(N2CCC(NC(=O)c3ccc(C(=O)O)cn3)C2)nc2c1COC2 (stereo unspecified) — higher, > 50 µM
- Cc1ccc(Nc2nc(N3CCC(NC(=O)c4ccc(C(=O)O)cn4)C3)nc3c2COC3)cc1 (stereo unspecified) — 1.8-fold higher, 20.9 µM
